Measurements as given in patent publication US10294202B2, “Pyrrolidinones as herbicides” (FMC Corporation, priority 2013, dated 2019).

How the values were obtained:
[1] = system: barnyardgrass; assay: Test A pre-/postemergence herbicide test; format: in vivo, Echinochloa crus-galli
Summary of the method: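 Seeds sown in loam soil/sand blend received a preemergence directed soil spray of test chemical in non-phytotoxic solvent with surfactant; postemergence plants (2–10 cm, one- to two-leaf stage) were sprayed with the same formulation. After about 10 days in greenhouse, injury was rated visually versus untreated controls, 0 (no effect) to 100 (complete control).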

[2] = system: rice; assay: Test B flooded paddy test; format: in vivo, Oryza sativa; conditions: 500 g ai/ha, Flood; scale of 0 to 100 where 0 is no effect and 100 is complete control
Summary of the method: (§1)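 Plants grown to 2-leaf stage; pots flooded 3 cm above soil and compound applied directly into paddy water, depth held throughout. Visual rating against untreated controls after 13 to 15 days in greenhouse, 0 (no effect) to 100 (complete control).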

[3] = system: barnyardgrass; assay: Test B flooded paddy test; format: in vivo, Echinochloa crus-galli; conditions: 500 g ai/ha, Flood; scale of 0 to 100 where 0 is no effect and 100 is complete control
Summary of the method: as §1

[4] = system: blackgrass; assay: Test C pre-/postemergence herbicide test; format: in vivo, Alopecurus myosuroides
Summary of the method: (§2)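 Visual rating, 0 (no effect) to 100 (complete control), versus untreated controls after 13 to 15 days in the greenhouse. Pre: seeds in loam/sand, sprayed at planting. Post: 1- to 4-leaf plants (2 to 18 cm) in peat-based mix. Compounds in non-phytotoxic solvent plus surfactant.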

[5] = system: galium; assay: Test C pre-/postemergence herbicide test; format: in vivo, Galium aparine; conditions: Preemergence
Summary of the method: as §2

[6] = system: corn; assay: Test C pre-/postemergence herbicide test; format: in vivo, Zea mays
Summary of the method: as §2

[7] = system: crabgrass, large; assay: Test C pre-/postemergence herbicide test; format: in vivo, Digitaria sanguinalis
Summary of the method: as §2

[8] = system: foxtail, giant; assay: Test C pre-/postemergence herbicide test; format: in vivo, Setaria faberii
Summary of the method: as §2

[9] = system: lambsquarters; assay: Test C pre-/postemergence herbicide test; format: in vivo, Chenopodium album
Summary of the method: as §2

[10] = system: pigweed; assay: Test C pre-/postemergence herbicide test; format: in vivo, Amaranthus retroflexus
Summary of the method: as §2

[11] = system: velvetleaf; assay: Test C pre-/postemergence herbicide test; format: in vivo, Abutilon theophrasti
Summary of the method: as §2

[12] = Postemergence, 31 g ai/ha, scale 0 to 100 (0 no effect, 100 complete control)
[13] = Postemergence, 62 g ai/ha, scale 0 (no effect) to 100 (complete control)
[14] = Postemergence, 125 g ai/ha, scale 0 to 100 (0 no effect, 100 complete control)
[15] = Postemergence, 250 g ai/ha, scale 0 to 100 (0 no effect, 100 complete control)
[16] = Preemergence, 31 g ai/ha, scale 0 to 100, 0 is no effect and 100 is complete control
[17] = Preemergence, 62 g ai/ha, scale 0 to 100 (0 no effect, 100 complete control)
[18] = Preemergence, 125 g ai/ha, scale 0 to 100 (0 no effect, 100 complete control)

Compound: CN1CC(c2ccc(F)c(F)c2)C(C(=O)Nc2cccc(F)c2F)C1=O (centres unmarked) [Compound 303]
- Plant response rating, Barnyardgrass ([1]; Postemergence, 125 g ai/ha, visual rating on 0 to 100 scale (0 no effect, 100 complete control), approx. 10 days): 80
- Plant response rating, Barnyardgrass ([1]; Postemergence, 500 g ai/ha, 0 to 100 scale (0 no effect, 100 complete control)): 90
- Plant response rating, Barnyardgrass ([1]; Preemergence, 125 g ai/ha, 0 to 100 scale where 0 is no effect and 100 is complete control): 90
- Barnyardgrass plant response rating ([1]; Preemergence, 500 g ai/ha, visual rating on 0 to 100 scale (0 no effect, 100 complete control)): 90
- Plant response rating, Rice [2]: 30
- Plant response rating, Barnyardgrass [3]: 80
- Plant response rating, Blackgrass [4, 12]: 0
- Plant response rating, Blackgrass [4, 13]: 0
- Plant response rating, Blackgrass [4, 14]: 0
- Plant response rating, Blackgrass [4, 15]: 0
- Blackgrass plant response rating [4, 16]: 0
- Blackgrass plant response rating [4, 17]: 40
- Plant response rating, Blackgrass [4, 18]: 80
- Plant response rating (scale of 0 to 100), Blackgrass ([4]; Preemergence, 250 g ai/ha): 90
- Galium plant response rating ([5]; 31 g ai/ha, scale 0 to 100, 0 is no effect and 100 is complete control): 90
- Galium plant response rating ([5]; 62 g ai/ha, scale 0 to 100 (0 no effect, 100 complete control)): 0
- Plant response rating, Galium ([5]; 125 g ai/ha, scale 0 to 100 (0 no effect, 100 complete control)): 85
- Plant response rating (scale of 0 to 100), Galium ([5]; 250 g ai/ha): 85
- Plant response rating, Corn [6, 12]: 0
- Plant response rating, Corn [6, 13]: 0
- Plant response rating, Corn [6, 14]: 0
- Plant response rating, Corn [6, 15]: 15
- Corn plant response rating [6, 16]: 10
- Corn plant response rating [6, 17]: 20
- Plant response rating, Corn [6, 18]: 35
- Plant response rating (scale of 0 to 100), Corn ([6]; Preemergence, 250 g ai/ha): 45
- Plant response rating, Crabgrass, Large [7, 12]: 0
- Plant response rating, Crabgrass, Large [7, 13]: 40
- Plant response rating, Crabgrass, Large [7, 14]: 65
- Plant response rating, Crabgrass, Large [7, 15]: 90
- Crabgrass, Large plant response rating [7, 16]: 95
- Crabgrass, Large plant response rating [7, 17]: 98
- Plant response rating, Crabgrass, Large [7, 18]: 98
- Plant response rating (scale of 0 to 100), Crabgrass, Large ([7]; Preemergence, 250 g ai/ha): 100
- Plant response rating, Foxtail, Giant [8, 13]: 80
- Plant response rating, Foxtail, Giant [8, 14]: 85
- Plant response rating, Foxtail, Giant [8, 15]: 90
- Foxtail, Giant plant response rating [8, 16]: 90
- Foxtail, Giant plant response rating [8, 17]: 95
- Plant response rating, Foxtail, Giant [8, 18]: 98
- Plant response rating (scale of 0 to 100), Foxtail, Giant ([8]; Preemergence, 250 g ai/ha): 100
- Plant response rating, Lambsquarters [9, 12]: 35
- Plant response rating, Lambsquarters [9, 13]: 85
- Plant response rating, Lambsquarters [9, 14]: 65
- Plant response rating, Lambsquarters [9, 15]: 80
- Lambsquarters plant response rating [9, 16]: 55
- Lambsquarters plant response rating [9, 17]: 60
- Plant response rating, Lambsquarters [9, 18]: 65
- Plant response rating (scale of 0 to 100), Lambsquarters ([9]; Preemergence, 250 g ai/ha): 80
- Plant response rating, Pigweed [10, 12]: 0
- Plant response rating, Pigweed [10, 13]: 0
- Plant response rating, Pigweed [10, 14]: 10
- Plant response rating, Pigweed [10, 15]: 25
- Pigweed plant response rating [10, 16]: 35
- Pigweed plant response rating [10, 17]: 55
- Plant response rating, Pigweed [10, 18]: 65
- Plant response rating (scale of 0 to 100), Pigweed ([10]; Preemergence, 250 g ai/ha): 80
- Plant response rating, Velvetleaf [11, 12]: 35
- Plant response rating, Velvetleaf [11, 13]: 0
- Plant response rating, Velvetleaf [11, 14]: 25
- Plant response rating, Velvetleaf [11, 15]: 35
- Velvetleaf plant response rating [11, 16]: 10
- Velvetleaf plant response rating [11, 17]: 25
- Plant response rating, Velvetleaf [11, 18]: 50
- Plant response rating (scale of 0 to 100), Velvetleaf ([11]; Preemergence, 250 g ai/ha): 55
